Reference: ChEMBL document CHEMBL1201862, “PubChem BioAssay data set” (2004)
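Cultured in 96-well plates, cells were exposed to test compound for 48 hours across five concentrations. GI50 = concentration required for 50% inhibition of growth.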 Active and inactive are the calls of the source. Rule as the data show it: active = GI50 up to about 1.1 µM and inactive = higher.

Legend:
Test in all cases: NCI anticancer screen, dose series, 48 h
[1] = system: HOP-92
[2] = system: DMS-273
[3] = system: LOX IMVI
[4] = system: MOLT-4
[5] = system: RXF 393
[6] = system: KM-20L2
[7] = system: UACC-62
[8] = system: HCC 2998
[9] = system: SK-MEL-2
[10] = system: COLO 205
[11] = system: OVCAR-3
[12] = system: UO-31
[13] = system: UACC-257
[14] = system: CCRF-CEM
[15] = system: SNB-75
[16] = system: A549
[17] = system: K562
[18] = system: HOP-18
[19] = system: SF-295
[20] = system: NCI-H23
[21] = system: NCI-H460
[22] = system: SW-620
[23] = system: DMS-114
[24] = system: RPMI-8226
[25] = system: OVCAR-4
[26] = system: XF498
[27] = system: SK-MEL-5
[28] = system: HL-60
[29] = system: SF-539
[30] = system: EKVX
[31] = system: OVCAR-5
[32] = system: KM12
[33] = system: HOP-62
[34] = system: NCI-H226
[35] = system: SK-OV-3
[36] = system: M19-MEL
[37] = system: DLD-1
[38] = system: SN12C
[39] = system: A498
[40] = system: SK-MEL-28
[41] = system: SNB-78
[42] = system: OVCAR-8
[43] = system: SF-268
[44] = system: IGROV-1
[45] = system: MCF7
[46] = system: SNB-19
[47] = system: NCI-H522
[48] = system: NCI/ADR-RES
[49] = system: HT-29
[50] = system: U-251
[51] = system: HCT-15
[52] = system: Malme-3M
[53] = system: HCT-116
[54] = system: CAKI-1

Nc1ccc2[nH]c3c(-c4ccccc4)nccc3c2c1
GI50 [1]: 39.1 µM (inactive)
GI50 [2]: 53.3 µM (inactive)
GI50 [3]: 28.9 µM (inactive)
GI50 [4]: 4.46 µM (inactive)
GI50 [5]: 38.2 µM (inactive)
GI50 [6]: 48.3 µM (inactive)
GI50 [7]: 29.2 µM (inactive)
GI50 [8]: 28.8 µM (inactive)
GI50 [9]: > 100 µM (inactive)
GI50 [10]: 44 µM (inactive)
GI50 [11]: 56.9 µM (inactive)
GI50 [12]: 37.7 µM (inactive)
GI50 [13]: > 75.3 µM (inactive)
GI50 [14]: 14.1 µM (inactive)
GI50 [15]: 29.6 µM (inactive)
GI50 [16]: 48.9 µM (inactive)
GI50 [17]: 24.4 µM (inactive)
GI50 [18]: > 100 µM (inactive)
GI50 [19]: 41.2 µM (inactive)
GI50 [20]: > 73.6 µM (inactive)
GI50 [21]: 11.3 µM (inactive)
GI50 [22]: 65.8 µM (inactive)
GI50 [23]: 37.6 µM (inactive)
GI50 [24]: 20.3 µM (inactive)
GI50 [25]: 23.7 µM (inactive)
GI50 [26]: 61.2 µM (inactive)
GI50 [27]: 19.8 µM (inactive)
GI50 [28]: 12 µM (inactive)
GI50 [29]: 71.6 µM (inactive)
GI50 [30]: > 100 µM (inactive)
GI50 [31]: > 88.3 µM (inactive)
GI50 [32]: 53.7 µM (inactive)
GI50 [33]: > 84.5 µM (inactive)
GI50 [34]: 27.8 µM (inactive)
GI50 [35]: 54.2 µM (inactive)
GI50 [36]: 64.6 µM (inactive)
GI50 [37]: 64.7 µM (inactive)
GI50 [38]: > 87.7 µM (inactive)
GI50 [39]: 36.5 µM (inactive)
GI50 [40]: > 100 µM (inactive)
GI50 [41]: > 55 µM (inactive)
GI50 [42]: 72.3 µM (inactive)
GI50 [43]: > 100 µM (inactive)
GI50 [44]: 57.4 µM (inactive)
GI50 [45]: > 45.1 µM (inactive)
GI50 [46]: > 100 µM (inactive)
GI50 [47]: 59.2 µM (inactive)
GI50 [48]: 24 µM (inactive)
GI50 [49]: 36.1 µM (inactive)
GI50 [50]: 75 µM (inactive)
GI50 [51]: 41.3 µM
GI50 [52]: 76.4 µM (inactive)
GI50 [53]: 34.6 µM (inactive)

CC1C(O)C2(Oc3cc4c(c5c3[C@@H](CC5O)[C@H]2C)CCC2Cc3nc5c(nc3C[C@@]42C)CC2CCC3C4=C[C@H]6O[C@@]7(O[C@@](C)(CO)C[C@@H]7O)C(C)[C@@]6(O)[C@]4(C)[C@@H](O)CC3[C@]2(C)C5)OC1(C)C (some centres not stated)
GI50 [1]: 0.204 µM (active)
GI50 [2]: 0.0304 µM (active)
GI50 [3]: 0.115 µM (active)
GI50 [5]: 0.0269 µM (active)
GI50 [6]: 0.0975 µM (active)
GI50 [7]: 0.0877 µM (active)
GI50 [8]: 0.536 µM (active)
GI50 [9]: 0.114 µM (active)
GI50 [10]: 0.152 µM (active)
GI50 [11]: 0.0891 µM (active)
GI50 [12]: 1.08 µM (active)
GI50 [13]: 0.614 µM (active)
GI50 [14]: 0.0582 µM (active)
GI50 [15]: 0.00543 µM (active)
GI50 [16]: 0.0581 µM (active)
GI50 [17]: 0.098 µM (active)
GI50 [18]: 2.01 µM (inactive)
GI50 [19]: 0.00531 µM (active)
GI50 [20]: 0.114 µM (active)
GI50 [21]: 0.0735 µM (active)
GI50 [22]: 0.201 µM (active)
GI50 [23]: 0.104 µM (active)
GI50 [24]: 0.0364 µM (active)
GI50 [25]: 0.498 µM (active)
GI50 [26]: 0.115 µM (active)
GI50 [27]: 0.237 µM (active)
GI50 [28]: 0.0644 µM (active)
GI50 [29]: 0.078 µM (active)
GI50 [30]: 0.123 µM (active)
GI50 [31]: 0.435 µM (active)
GI50 [32]: 0.241 µM (active)
GI50 [54]: 0.148 µM (active)
GI50 [33]: 0.0715 µM (active)
GI50 [34]: 0.135 µM (active)
GI50 [35]: 0.139 µM (active)
GI50 [36]: 0.863 µM (active)
GI50 [37]: 1.1 µM (active)
GI50 [38]: 0.377 µM (active)
GI50 [39]: 0.0652 µM (active)
GI50 [41]: 0.0494 µM (active)
GI50 [42]: 0.428 µM (active)
GI50 [43]: 0.0904 µM (active)
GI50 [44]: 0.128 µM (active)
GI50 [45]: 0.117 µM (active)
GI50 [47]: 0.123 µM (active)
GI50 [48]: 2.9 µM (inactive)
GI50 [49]: 0.0977 µM (active)
GI50 [50]: 0.00302 µM (active)
GI50 [51]: 0.649 µM
GI50 [52]: 0.0927 µM (active)
GI50 [53]: 0.12 µM (active)

CCCCC(C)C1CCC2(C)C=CC(=O)C(C)=C2C1O (configuration not stated)
GI50 [1]: > 100 µM (inactive)
GI50 [2]: > 100 µM (inactive)
GI50 [3]: > 100 µM (inactive)
GI50 [4]: > 100 µM (inactive)
GI50 [5]: > 100 µM (inactive)
GI50 [6]: > 100 µM (inactive)
GI50 [7]: > 100 µM (inactive)
GI50 [8]: > 100 µM (inactive)
GI50 [9]: > 100 µM (inactive)
GI50 [10]: > 100 µM (inactive)
GI50 [11]: > 100 µM (inactive)
GI50 [12]: > 100 µM (inactive)
GI50 [13]: > 100 µM (inactive)
GI50 [14]: > 100 µM (inactive)
GI50 [15]: > 100 µM (inactive)
GI50 [16]: > 100 µM (inactive)
GI50 [17]: > 100 µM (inactive)
GI50 [18]: > 100 µM (inactive)
GI50 [19]: > 100 µM (inactive)
GI50 [20]: > 100 µM (inactive)
GI50 [21]: > 100 µM (inactive)
GI50 [22]: > 100 µM (inactive)
GI50 [23]: > 100 µM (inactive)
GI50 [24]: > 100 µM (inactive)
GI50 [25]: > 100 µM (inactive)
GI50 [26]: > 100 µM (inactive)
GI50 [27]: > 100 µM (inactive)
GI50 [28]: > 100 µM (inactive)
GI50 [29]: > 100 µM (inactive)
GI50 [30]: > 100 µM (inactive)
GI50 [31]: > 100 µM (inactive)
GI50 [32]: > 100 µM (inactive)
GI50 [54]: > 100 µM (inactive)
GI50 [33]: > 100 µM (inactive)
GI50 [34]: > 100 µM (inactive)
GI50 [35]: > 100 µM (inactive)
GI50 [36]: > 100 µM (inactive)
GI50 [37]: > 100 µM (inactive)
GI50 [38]: > 100 µM (inactive)
GI50 [39]: > 100 µM (inactive)
GI50 [40]: > 100 µM (inactive)
GI50 [41]: > 100 µM (inactive)
GI50 [42]: > 100 µM (inactive)
GI50 [43]: > 100 µM (inactive)
GI50 [44]: > 100 µM (inactive)
GI50 [45]: > 100 µM (inactive)
GI50 [46]: > 100 µM (inactive)
GI50 [47]: > 100 µM (inactive)
GI50 [48]: > 100 µM (inactive)
GI50 [49]: > 100 µM (inactive)
GI50 [50]: > 100 µM (inactive)
GI50 [51]: > 100 µM
GI50 [53]: > 100 µM (inactive)
